These results are taken from patent US20250312469A1 (CANGET BIOTEKPHARMA, priority 2024, published 2025).

Molecules are shown by their SMILES.

Series [1] addresses T1, USP2a (Homo sapiens, UniProt O75604).
T1 sequence (O75604 1-605): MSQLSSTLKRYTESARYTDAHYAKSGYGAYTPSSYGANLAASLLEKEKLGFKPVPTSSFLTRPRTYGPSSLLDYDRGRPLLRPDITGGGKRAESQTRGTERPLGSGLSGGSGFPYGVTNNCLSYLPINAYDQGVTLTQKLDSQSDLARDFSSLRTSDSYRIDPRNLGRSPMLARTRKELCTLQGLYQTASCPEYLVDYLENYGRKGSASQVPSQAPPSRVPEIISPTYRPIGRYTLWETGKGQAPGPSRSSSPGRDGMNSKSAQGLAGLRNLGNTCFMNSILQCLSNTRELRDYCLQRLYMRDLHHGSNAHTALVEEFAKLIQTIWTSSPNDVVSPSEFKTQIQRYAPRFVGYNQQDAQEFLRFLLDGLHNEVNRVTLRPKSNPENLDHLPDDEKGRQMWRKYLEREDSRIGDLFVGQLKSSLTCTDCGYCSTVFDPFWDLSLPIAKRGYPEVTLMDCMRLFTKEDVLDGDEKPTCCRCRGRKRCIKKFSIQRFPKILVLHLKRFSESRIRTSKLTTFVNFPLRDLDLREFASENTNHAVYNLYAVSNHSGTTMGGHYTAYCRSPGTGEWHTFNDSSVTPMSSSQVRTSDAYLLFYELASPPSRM
The series is described as follows: USP2a deubiquitinase in vitro reconstitution assay. Conditions: 50 nM FL118; polyUb MdmX.

Series [2] concerns the target T2, UbE2T (Homo sapiens, UniProt Q9NPD8).
T2 sequence (Q9NPD8 1-197): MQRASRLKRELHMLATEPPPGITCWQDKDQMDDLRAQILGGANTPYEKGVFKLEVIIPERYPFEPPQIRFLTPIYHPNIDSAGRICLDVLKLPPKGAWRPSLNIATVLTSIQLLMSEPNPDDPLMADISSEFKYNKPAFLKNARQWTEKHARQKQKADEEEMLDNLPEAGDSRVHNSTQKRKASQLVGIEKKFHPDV
The series is described as follows: ProtoArray protein microarray probed with 3H-FL118. The series is classed as binding. More on the design: purchased Invitrogen ProtoArray Human Protein Microarray v5.0. Conditions: 3H-FL118 0.5 μM. As for the experimental part: (§1) The flask was then immersed in silicone oil bath at 180° C.-190° C. for 6 hours. The tritium gas was removed. The reaction mixture was dissolved in 1 mL of DMSO and back-exchanged 10× with 50% ethanol. Injected directly to CapCeLL PAK C-18 column (4.6×250 mm), mobile phase 30% CH3CN, 0.1% TFA, flow 1 mL/min, U.V. =200 nm, r.t. =40 min. After purification, total activity was 5 mCi (solid) with a specificity of 5.6 Ci/mmol at a radiochemical purity of >97% for ^3H-FL118. […] The flask was then immersed in silicone oil bath at 190° C. for 24 h. The tritium gas was removed. The reaction mixture was dissolved in 1 mL of DMSO and back-exchanged 10× with 50% ethanol and injected directly to CapCeLL Pak C-18 column (4.6×250 mm), mobile phase 30% CH3CN, 0.1% TFA, […], U.V. =200 nm, r.t. =40 min. After purification total activity was 5 mCi (solid) with a specificity of 16.5 Ci/mmol at a radiochemical purity of ≥81% for ^3H-FL118.
(§2) Use of ^3H-FL118 as a radioactive probe to search FL118-binding proteins through screening of human protein microarray (ProtoArray R with 9,400 human proteins, Invitrogen): The study process includes the following steps.
(§3) 1. Blocking the ProtoArray: (i) Immediately place the mailer containing the Human Protein Microarray v5.0 at 4° C. upon removal from storage at −20° C. and equilibrate the mailer at 4° C. for at least 15 minutes prior to use. (ii) Place Human Protein Microarrays with the barcode facing up in the bottom of a 4-chamber incubation tray such that the barcode end of the microarray is near the tray end containing an indented numeral. […] Avoid pipetting buffer directly onto the array surface. (iv) Incubate the tray for 1 hour at 4° C. on a shaker set at 50 rpm (circular shaking). (v) After incubation, remove Protein Microarrays from FL118 Assay Buffer. To remove array from the 4-chamber incubation tray, insert the tip of forceps into the indented numeral end and gently pry the array upward. Using a gloved hand, pick up the microarray by holding the array by its edges only. Tap to remove excess liquid from slide surface. (vi) Proceed immediately to Probing the Array.
(§4) 2. Probing the ProtoArray: (i) Place each ProtoArray horizontally in a separate sterile 50 mL conical tube with about ⅓ of the array extended outside of the tube. The barcoded end of the array should protrude from the tube (face up). (ii) For each ProtoArray, add 100 μL of probing mixture including ^3H-FL118 (final concentration of ^3H-FL118 at 0.1 μM and 0.5 μM, respectively on different ProtoArray) and the positional mapping reagent ^3H-estradiol and pipet the mixture gently onto the surface of the ProtoArray. (iii) Gently place a coverslip over the surface of the ProtoArray using forceps to avoid capturing bubbles. […]

Series [3] concerns the target T1, USP2a. The experiment in a line: ProtoArray protein microarray probed with 3H-FL118. More on the design: purchased Invitrogen ProtoArray Human Protein Microarray v5.0. The series is classed as binding. To be noted: 3H-FL118 0.5 μM. Here is the method: as §1, §2, §3, §4
In series [4] the test system is 22Rv1 CRPC tumors. The experiment in a line: 22Rv1 CRPC tumor model.

Consider `CCC1(O)C(=O)OCc2c1cc1n(c2=O)Cc2cc3cc4c(cc3nc2-1)OCO4` (stereo not shown) [FL118], for which the USP2a deubiquitinase activity result in series [1] is “inhibited USP2a deubiquitinase activity”. For the same molecule, the figures for the Signal used in series [2] and in series [3] were 1812 3H counts per min and 1959 3H counts per min, respectively. In addition, the Z-Score came to 3.2 in series [2] and 3.7 in series [3]. In addition, the antitumor efficacy entry in series [4] (5 mg/kg oral, weekly×4) was “completely inhibited 22Rv1 tumor growth”. The “toxicity (clinical observations, body weight)” value in series [4] (therapeutic dose) is listed as “exhibited no toxicity”.
